Results taken from patent US11084826B2, “RSV antiviral pyrazolo- and triazolo-pyrimidine compounds” (Janssen Sciences Ireland Unlimited Company, priority 2015, dated 2021).
Where two headings read alike, the source gives them in different places.

How the values were obtained:
rgRSV224 virus = assay: Antiviral activity: inhibition of rgRSV224 (GFP-expressing RSV) replication in HeLa cells, GFP expression read-out; format: cell-based, respiratory syncytial virus (RSV); details: for RSV HELA pEC50: rgRSV224 virus (MOI=1) in HeLa cells, GFP read-out
Procedure, shortened: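 EC50 is the 50% inhibitory concentration for GFP expression, read by laser microscopy three days after rgRSV224 infection (MOI=1) of HeLa cells (3,000/well). Compounds were tested as 9 serial 4-fold dilutions at 0.05% DMSO, and cells were incubated at 37° C under 5% CO2.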

HeLa cells = assay: Cytotoxicity in HeLa cells, ATP content measured with the ATPlite kit; format: cell-based
[1] = as above; format: cell-based; details: human, TOX HELA pCC50

| Structure (SMILES) | RSV HELA pEC50 (rgRSV224 virus) | TOX HELA pCC50 (HeLa cells) | EC50 (rgRSV224 virus; human respiratory syncytial virus, HeLa, read-out: RSV HELA pEC50, rgRSV224 virus (MOI=1) in HeLa cells, GFP read-out (converted)) | TOX HELA pCC50 (HeLa cells; human, 3 days) | CC50 at 3 days [1] |
| --- | --- | --- | --- | --- | --- |
| C[C@@H]1CCCCCN1C(=O)c1cc(C2CC2)n2nc(-c3ccc(-c4ccc(C(=O)O)cn4)cc3F)cc2n1 [Compound F21] | 7.28 | 4.37 |  |  |  |
| CCc1cc(C(=O)N2CCc3ccccc3[C@H]2C)nc2cc(-c3ccc4cc(C(=O)O)ccc4c3F)nn12 [Compound F34] | 7.46 | 4.17 |  |  |  |
| CCc1cc(C(=O)N2CCCCC[C@H]2C)nc2cc(-c3ccc4c(c3F)OCC(C(=O)O)C4)nn12 (stereo partly drawn) [Compound F42] | 7.16 | <4 |  |  |  |
| CCc1cc(C(=O)N2CCCCC[C@H]2C)nc2cc(-c3ccc4oc(C(=O)O)cc4c3F)nn12 [Compound F44] | 6.40 | 4.25 |  |  |  |
| CCc1cc(C(=O)N2CCCCC[C@H]2C)nc2cc(-c3ccc4c(c3F)C=C(C(=O)O)CO4)nn12 [Compound F46] | 7.31 | <4 |  |  |  |
| CCc1cc(C(=O)N2CCCCC[C@H]2C)nc2cc(-c3ccc(C4=CCCC(C(=O)O)C4)cc3F)nn12 (stereo partly drawn) [Compound F52] | 6.81 | 4.22 |  |  |  |
| CCc1cc(C(=O)N2CCc3ccccc3[C@H]2C)nc2cc(-c3ccc4c(c3F)OCC(C(=O)O)=C4)nn12 [Compound F54] | 8.59 | 4.75 |  |  |  |
| CCc1cc(C(=O)N2CCc3sccc3[C@H]2C)nc2cc(-c3ccc(-c4ccc(C(=O)O)cn4)cc3F)nn12 [Compound F63] | 7.34 | 4.35 |  |  |  |
| CCc1cc(C(=O)N2CCCCC[C@H]2C)nc2cc(-c3ccc4c(c3F)OC[C@H](C(=O)O)C4)nn12 [Compound F64] | 7.12 | <4 |  |  |  |
| CCc1cc(C(=O)N2CCn3c(C)ccc3C2C)nc2cc(-c3ccc(C(N)=O)cc3F)nn12 (stereo not drawn) [Compound I36] | 6.58 | <4.60 |  |  |  |
| CCc1cc(C(=O)N2CCn3nccc3C2C)nc2cc(-c3ccc(C(N)=O)cc3F)nn12 (stereo not drawn) [Compound I37] | 6.24 | <4.60 |  |  |  |
| C[C@@H]1CCCCCN1C(=O)c1cc(N(C)C)n2nc(-c3ccc(/C=C/C(=O)O)cc3F)cc2n1 [Compound M4] | 6.80 | <4.60 |  |  |  |
| CCc1cc(C(=O)N2CCc3ccccc3C2C)nc2cc(-c3ccc(/C=C/C(=O)O)cc3Cl)nn12 (stereo not drawn) [Compound M6] | 6.84 | <4.60 |  |  |  |
| CCc1cc(C(=O)N2CCCCC[C@H]2C)nc2cc(-c3ccc(/C=C/C(=O)O)cc3F)nn12 [Compound M7] | 7.00 | <4.60 |  |  |  |
| CNc1cc(C(=O)N2CCc3ccccc3C2C)nc2cc(-c3ccc(/C=C/C(=O)O)cc3F)nn12 (stereo not drawn) [Compound M8] | 7.31 | <4.60 |  |  |  |
| C[C@@H]1CCCCCN1C(=O)c1cc(C2CCC2)n2nc(-c3ccc(/C=C/C(=O)O)cc3F)cc2n1 [Compound M19] | 7.72 |  | 0.0302 µM | 4.49 | 38.9 µM |

| Structure (SMILES) | RSV HELA pEC50 (rgRSV224 virus) | TOX HELA pCC50 (HeLa cells) | EC50 (rgRSV224 virus; human respiratory syncytial virus, HeLa, read-out: RSV HELA pEC50, rgRSV224 virus (MOI=1) in HeLa cells, GFP read-out (converted)) | TOX HELA pCC50 (HeLa cells; human, 3 days) | CC50 at 3 days [1] |
| --- | --- | --- | --- | --- | --- |
| C[C@@H]1CCCCCN1C(=O)c1cc(C2CC2)n2nc(-c3ccc(/C=C/C(=O)O)cc3F)cc2n1 [Compound M21] | 7.16 | 4.34 |  |  |  |
| C[C@@H]1CCCCCN1C(=O)c1cc(C2(C)CC2)n2nc(-c3cccc(/C=C/C(=O)O)c3F)cc2n1 [Compound M22] | 7.34 | 4.05 |  |  |  |
| CCc1cc(C(=O)N2CCCCC[C@H]2C)nc2cc(-c3cccc(/C=C\C(=O)O)c3F)nn12 [Compound M31] | 6.13 | <4 |  |  |  |
| CCc1cc(C(=O)N2CCCCC[C@H]2C)nc2cc(-c3ccc(OC)c(/C=C/C(=O)O)c3F)nn12 [Compound M34] | 7.04 | <4 |  |  |  |
| C[C@@H]1c2ccccc2CCN1C(=O)c1cc(C2(C)CC2)n2nc(-c3cccc(/C=C/C(=O)O)c3F)cc2n1 [Compound M36] | 7.99 | 4.26 |  |  |  |
| CN1CCCCCN1C(=O)c1cc(C2(C)CC2)n2nc(-c3cccc(/C=C/C(=O)O)c3F)cc2n1 [Compound M37] | 7.10 | <4 |  |  |  |
| CCCC(C)N(C)C(=O)c1cc(CC)n2nc(-c3cccc(/C=C/C(=O)O)c3F)cc2n1 (stereo not drawn) [Compound M38] | 6.65 | <4 |  |  |  |
| CCc1cc(C(=O)N2CCCC3(CC=CC3)C2C)nc2cc(-c3cccc(/C=C/C(=O)O)c3F)nn12 (stereo not drawn) [Compound M39] | 6.19 | <4 |  |  |  |
| CCc1cc(C(=O)N2CCCCCN2C)nc2cc(-c3cccc(/C=C/C(=O)O)c3F)nn12 [Compound M40] | 6.37 | <4 |  |  |  |
| CCc1cc(C(=O)N2CCn3cccc3C2C)nc2cc(-c3cccc(/C=C/C(=O)O)c3F)nn12 (stereo not drawn) [Compound M45] | 7.54 | <4 |  |  |  |
| CC1c2ccsc2CCN1C(=O)c1cc(C2(C)CC2)n2nc(-c3cccc(/C=C/C(=O)O)c3F)cc2n1 (stereo not drawn) [Compound M47] | 7.87 | 4.07 |  |  |  |
| CCc1cc(C(=O)N2CCc3ccccc3[C@H]2C)nc2cc(-c3ccc(C4C[C@H]4C(=O)O)cc3F)nn12 (stereo partly drawn) [Compound O15] | 7.91 | 4.32 |  |  |  |
| C[C@@H]1CCCCCN1C(=O)c1cc(C2(C)COC2)n2nc(-c3ccc(C4C[C@H]4C(=O)O)cc3F)cc2n1 (stereo partly drawn) [Compound O17] | 7.29 | 4.11 |  |  |  |
| CCc1cc(C(=O)N2CCCCC[C@H]2C)nc2cc(-c3ccc(-n4cc(C(=O)O)cn4)cc3F)nn12 [Compound W2] |  |  |  | 4.31 | > 25.1 µM |
| CC(C)Cc1cc(C(=O)N2CCCCC[C@H]2C)nc2cc(-c3ccc(-n4cc(C(=O)O)cn4)cc3F)nn12 [Compound W13] | 7.45 | 4.38 |  |  |  |
| CC(C)Cc1cc(C(=O)N2CCCCC[C@H]2C)nc2cc(-c3ccc(N4CC[C@H](C(=O)O)C4)cc3F)nn12 [Compound W14] | 7.53 | 4.29 |  |  |  |
